Measured values from patent US8288379B2, “Thia-triaza-cyclopentazulenes” (Boehringer Ingelheim International GmbH, priority 2009, dated 2012).

What was measured:
[1] = biological target: T1, FRAP1 (mTOR) kinase (Homo sapiens, UniProt P42345); test: Inhibition of mTOR-induced p-4E-BP1 phosphorylation (TR-FRET mTOR Activity Kit; Invitrogen); assay type: biochemical; conditions: 400 nM GFP-4E-BP1 substrate, ~150 ng/mL mTOR, one hour at room temperature
T1 construct: purchased Invitrogen PV4753
Excerpt: Inhibition of mTOR-Induced p-4E-BP1 Phosphorylation (TR-FRET mTOR Activity Kit; Invitrogen)
• GFP-4E-BP1 substrate; Invitrogen order no. PV4759 • Lanthascreen Tb-anti-p4E-BP1 (pThr46) Antibody Kit; Invitrogen order no. PV4758 • FRAP1 (mTOR) kinase; Invitrogen order no. […] Preparation of Reagents: Note: Thaw and keep mTOR, the substrate, ATP, and the antibody on ice prior to making working dilutions. Working dilutions of these components can be kept at room temperature for short periods of time the day of use. 1. Add 2 ml of 5× Assay Buffer to 8 ml water to prepare 10 ml of 1× Assay Buffer. Note: The concentration of 1× Assay Buffer is 50 mM HEPES pH 7.5, 0.01% Polysorbate 20, 1 mM EGTA, and 10 mM MnCl2. 2. Prepare Antibody/EDTA Solution by first adding 2.75 n1 of Tb-anti p4E-BP1 Antibody to 2397 n1 of LanthaScreen™ TR-FRET Dilution Buffer. Then, add 100 n1 of 0.5 M EDTA. 3. Prepare 4× Substrate/Enzyme Solution by first adding 72 n1 of GFP-4E-BP1 (22 nM) to 926 n1 of 1× Assay Buffer. Then, add 1.6 n1 of mTOR (0.45 mg/mL). 4. Prepare ATP Solution by adding 3.2 n1 of 10 mM ATP to 1997 n1 of 1× Assay Buffer. Serial Dilution of Inhibitors (16 Point Curve): Note: It is recommended that inhibitors be serially diluted in DMSO, then diluted to a 4× working concentration with 1× Assay Buffer. The below procedure describes dilution of compounds in a 96-well format prior to transfer to a 384-well format for kinase assays. This procedure calls for dilution of the compounds in 2 adjacent columns of a 96-well plate, which upon transfer to a single column of a 384-well plate with an 8-channel pipette will align the samples in order of concentration. 1. Dispense 40 n1 of DMSO to two adjacent columns of a 96 well plate per compound (e.g. columns 1 and 2). 2. Add 10 n1 of inhibitor stock (10 mM) to the first well of the first column (A1) and mix. 3. Remove 10 n1 from A1 and transfer to the adjacent well in the next column (B1) and mix. 4. Remove 10 n1 from B1 and transfer to the next well in the first column (B2) and mix. 5. Repeat this dilution pattern through well H1 and leave the last well (H2) as DMSO only. 6. Remove 4 n1 of diluted compounds and add to 96 n1 of 1× Assay Buffer in a 96-well plate making 4× compound dilutions. Kinase Reaction: 1. Add 2.5 μl of 4× compound dilutions from the first column of the 96-well plate to every other well of column 1 of a 384-well plate with an 8-channel pipette. Repeat for columns 2 and 3. 2. Add 2.5 n1 of 4× compound dilutions from the second column of the 96-well plate to the empty wells of column 1 of the 384-well plate with an 8-channel pipette. Repeat for columns 2 and 3. Note: This procedure aligns the compound dilutions in order of concentration. 3. Add 2.5 n1 of 4× Enzyme/Substrate Solution to all columns 1-6. 4. Preincubate for 30 min. at RT (shaker). 5. Add 5 n1 of ATP Solution to all wells to start reactions. 6. Shake the assay plate on a plate shaker for 30 seconds. 7. Incubate the assay plate for one hour at room temperature (20-25° C.). Stop Step and Fluorescence Detection: 1. Add 10 n1 of Antibody/EDTA Solution to each well in columns 1-9. 2. Shake the assay plate on a plate shaker for 30 seconds. 3. Incubate the assay plate for one hour at room temperature (20-25° C.). 4. Measure the GFP (FRET) and terbium (reference) emission signals on a fluorescence plate reader (e.g. Perkin Elmer Envision). Data Analysis: 1. Calculate the emission ratio for each sample by dividing the GFP (FRET) signal by the terbium (reference) signal. 2. Plot the concentration of each compound versus the emission ratio. Determine the concentration of compound required to reach 50% of the maximum signal (IC50). Determination of IC50 values can be obtained by curve fitting (sigmoidal dose response, variable slope) using Prism software from GraphPad). Inhibition of Proliferation: CyQuant PC-3 Description: […]

[2] = tested on: PC-3 cells; test: Inhibition of proliferation: CyQuant PC-3; assay type: cell-based; conditions: 72 h; PC-3 human prostate carcinoma cells, incubated with compounds for 3 days, CyQuant NF DNA dye
Experimental: • GFP-4E-BP1 substrate; Invitrogen order no. PV4759 • Lanthascreen Tb-anti-p4E-BP1 (pThr46) Antibody Kit; Invitrogen order no. PV4758 • FRAP1 (mTOR) kinase; Invitrogen order no. […] Preparation of Reagents: Note: Thaw and keep mTOR, the substrate, ATP, and the antibody on ice prior to making working dilutions. Working dilutions of these components can be kept at room temperature for short periods of time the day of use. 1. Add 2 ml of 5× Assay Buffer to 8 ml water to prepare 10 ml of 1× Assay Buffer. Note: The concentration of 1× Assay Buffer is 50 mM HEPES pH 7.5, 0.01% Polysorbate 20, 1 mM EGTA, and 10 mM MnCl2. 2. Prepare Antibody/EDTA Solution by first adding 2.75 n1 of Tb-anti p4E-BP1 Antibody to 2397 n1 of LanthaScreen™ TR-FRET Dilution Buffer. Then, add 100 n1 of 0.5 M EDTA. 3. Prepare 4× Substrate/Enzyme Solution by first adding 72 n1 of GFP-4E-BP1 (22 nM) to 926 n1 of 1× Assay Buffer. Then, add 1.6 n1 of mTOR (0.45 mg/mL). 4. Prepare ATP Solution by adding 3.2 n1 of 10 mM ATP to 1997 n1 of 1× Assay Buffer. Serial Dilution of Inhibitors (16 Point Curve): Note: It is recommended that inhibitors be serially diluted in DMSO, then diluted to a 4× working concentration with 1× Assay Buffer. The below procedure describes dilution of compounds in a 96-well format prior to transfer to a 384-well format for kinase assays. This procedure calls for dilution of the compounds in 2 adjacent columns of a 96-well plate, which upon transfer to a single column of a 384-well plate with an 8-channel pipette will align the samples in order of concentration. 1. Dispense 40 n1 of DMSO to two adjacent columns of a 96 well plate per compound (e.g. columns 1 and 2). 2. Add 10 n1 of inhibitor stock (10 mM) to the first well of the first column (A1) and mix. 3. Remove 10 n1 from A1 and transfer to the adjacent well in the next column (B1) and mix. 4. Remove 10 n1 from B1 and transfer to the next well in the first column (B2) and mix. 5. Repeat this dilution pattern through well H1 and leave the last well (H2) as DMSO only. 6. Remove 4 n1 of diluted compounds and add to 96 n1 of 1× Assay Buffer in a 96-well plate making 4× compound dilutions. Kinase Reaction: 1. Add 2.5 μl of 4× compound dilutions from the first column of the 96-well plate to every other well of column 1 of a 384-well plate with an 8-channel pipette. Repeat for columns 2 and 3. 2. Add 2.5 n1 of 4× compound dilutions from the second column of the 96-well plate to the empty wells of column 1 of the 384-well plate with an 8-channel pipette. Repeat for columns 2 and 3. Note: This procedure aligns the compound dilutions in order of concentration. 3. Add 2.5 n1 of 4× Enzyme/Substrate Solution to all columns 1-6. 4. Preincubate for 30 min. at RT (shaker). 5. Add 5 n1 of ATP Solution to all wells to start reactions. 6. Shake the assay plate on a plate shaker for 30 seconds. 7. Incubate the assay plate for one hour at room temperature (20-25° C.). Stop Step and Fluorescence Detection: 1. Add 10 n1 of Antibody/EDTA Solution to each well in columns 1-9. 2. Shake the assay plate on a plate shaker for 30 seconds. 3. Incubate the assay plate for one hour at room temperature (20-25° C.). 4. Measure the GFP (FRET) and terbium (reference) emission signals on a fluorescence plate reader (e.g. Perkin Elmer Envision). Data Analysis: 1. Calculate the emission ratio for each sample by dividing the GFP (FRET) signal by the terbium (reference) signal. 2. Plot the concentration of each compound versus the emission ratio. Determine the concentration of compound required to reach 50% of the maximum signal (IC50). Determination of IC50 values can be obtained by curve fitting (sigmoidal dose response, variable slope) using Prism software from GraphPad). Inhibition of Proliferation: CyQuant PC-3 Description:
The CyQuant NF assay is based on measurement of cellular DNA content via fluorescent dye binding. Because cellular DNA content is highly regulated, it is closely proportional to cell number. […]

T1 sequence (P42345 1360-2549 limits assumed): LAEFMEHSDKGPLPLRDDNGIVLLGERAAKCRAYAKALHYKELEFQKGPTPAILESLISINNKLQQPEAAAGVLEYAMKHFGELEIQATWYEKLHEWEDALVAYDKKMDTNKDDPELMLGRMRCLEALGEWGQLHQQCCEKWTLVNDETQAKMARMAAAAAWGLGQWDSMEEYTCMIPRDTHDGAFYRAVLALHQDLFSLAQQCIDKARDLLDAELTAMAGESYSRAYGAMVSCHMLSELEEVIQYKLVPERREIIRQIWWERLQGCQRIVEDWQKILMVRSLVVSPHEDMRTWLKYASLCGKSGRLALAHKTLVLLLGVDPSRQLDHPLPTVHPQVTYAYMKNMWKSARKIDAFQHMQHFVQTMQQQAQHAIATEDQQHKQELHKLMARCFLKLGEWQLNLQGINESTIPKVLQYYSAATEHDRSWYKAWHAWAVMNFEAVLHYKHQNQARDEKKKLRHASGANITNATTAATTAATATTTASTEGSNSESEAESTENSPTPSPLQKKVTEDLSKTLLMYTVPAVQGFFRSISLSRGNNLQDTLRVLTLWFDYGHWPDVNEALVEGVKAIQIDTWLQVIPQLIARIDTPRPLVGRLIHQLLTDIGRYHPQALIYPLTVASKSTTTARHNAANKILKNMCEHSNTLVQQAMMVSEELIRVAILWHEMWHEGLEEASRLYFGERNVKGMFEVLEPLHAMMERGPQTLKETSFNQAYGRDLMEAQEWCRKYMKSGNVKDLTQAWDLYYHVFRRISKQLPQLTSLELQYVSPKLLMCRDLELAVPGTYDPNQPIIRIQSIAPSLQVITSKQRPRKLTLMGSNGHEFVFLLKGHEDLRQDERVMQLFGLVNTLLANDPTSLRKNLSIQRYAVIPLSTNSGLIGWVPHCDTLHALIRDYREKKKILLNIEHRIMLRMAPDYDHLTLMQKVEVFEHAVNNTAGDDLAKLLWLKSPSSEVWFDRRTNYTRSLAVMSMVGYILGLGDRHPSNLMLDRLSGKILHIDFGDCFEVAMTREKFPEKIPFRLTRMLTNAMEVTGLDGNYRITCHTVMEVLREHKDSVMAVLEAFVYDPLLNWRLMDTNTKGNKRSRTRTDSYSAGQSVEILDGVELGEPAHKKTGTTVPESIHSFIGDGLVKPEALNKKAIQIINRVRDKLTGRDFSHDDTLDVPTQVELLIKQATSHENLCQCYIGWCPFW

Structure (SMILES): CNc1ccc(-c2nn(-c3ccccc3C)c3c2CCCc2nc(NC(=O)OC)sc2-3)cn1 [Example B-50, [3-(6-Methylamino-pyridin-3-yl)-1-o-tolyl-1,4,5,6-tetrahydro-9-thia-1,2,7-triaza-cyclopenta[e]azulen-8-yl]-carbamic acid methyl ester]
- IC50 [1]: 30 nM
- EC50 [2]: 209 nM

Structure (SMILES): CN(C)C(=O)Nc1nc2c(s1)-c1c(c(-c3ccc(N)nc3)nn1-c1ccccc1Cl)CCC2 [Example B-54]
- IC50 [1]: 570 nM
- EC50 [2]: 390 nM

Structure (SMILES): CC(=O)Nc1nc2c(s1)-c1c(c(-c3c[nH]cn3)nn1-c1ccc(C(=O)N(C)C)cc1Cl)CCC2 [Example B-114]
- IC50 [1]: 4 nM
- EC50 [2]: 382 nM

Structure (SMILES): CNc1ccc(-c2nn(-c3ccccc3)c3c2CCCc2nc(NC(C)=O)sc2-3)cn1 [Example B-87, N-[3-(6-Methylamino-pyridin-3-yl)-1-phenyl-1,4,5,6-tetrahydro-9-thia-1,2,7-triaza-cyclopenta[e]azulen-8-yl]-acetamide]
- IC50 [1]: 55 nM
- EC50 [2]: 21 nM

Structure (SMILES): CNc1ccc(-c2nn(C3CCN(C4CC4)CC3)c3c2CCCc2nc(NC(=O)N(C)C)sc2-3)cn1 [Example B-57]
- IC50 [1]: 70 nM
- EC50 [2]: 147 nM

Structure (SMILES): CNc1ccc(-c2nn(C3CCN(C)CC3)c3c2CCCc2nc(NC(=O)N(C)C)sc2-3)cn1 [Example B-56]
- IC50 [1]: 379 nM
- EC50 [2]: 579 nM

Structure (SMILES): CNc1ccc(-c2nn(C3CCCOC3)c3c2CCCc2nc(NC(C)=O)sc2-3)cn1 (stereo not shown) [Example B-83, N-[3-(6-Methylamino-pyridin-3-yl)-1-(tetrahydro-pyran-3-yl)-1,4,5,6-tetrahydro-9-thia-1,2,7-triaza-cyclopenta[e]azulen-8-yl]-acetamide]
- IC50 [1]: 65 nM
- EC50 [2]: 41 nM

Structure (SMILES): CC(=O)Nc1nc2c(s1)-c1c(c(-c3ccc(C)nc3)nn1C1CCN(C3CC3)CC1)CCC2 [Example B-12, N-[1-(1-Cyclopropyl-piperidin-4-yl)-3-(6-methyl-pyridin-3-yl)-1,4,5,6-tetrahydro-9-thia-1,2,7-triaza-cyclopent[e]azulen-8-yl]acetamide]
- IC50 [1]: 31 nM
- EC50 [2]: 127 nM

Structure (SMILES): CC(=O)Nc1nc2c(s1)-c1c(c(-c3ccc(N)nc3)nn1-c1ccccc1C)CCC2 [Example B-61, N-[3-(6-Amino-pyridin-3-yl)-1-o-tolyl-1,4,5,6-tetrahydro-9-thia-1,2,7-triaza-cyclopenta[e]azulen-8-yl]-acetamide]
- IC50 [1]: 15 nM
- EC50 [2]: 69 nM

Structure (SMILES): CN(C)CC(=O)Nc1nc2c(s1)-c1c(c(-c3ccc(N)nc3)nn1-c1ccccc1F)CCC2 [Example E-17, N-[3-(6-Amino-pyridin-3-yl)-1-(2-fluoro-phenyl)-1,4,5,6-tetrahydro-9-thia-1,2,7-triaza-cyclopenta[e]azulen-8-yl]-2-dimethylamino-acetamide]
- IC50 [1]: 65 nM
- EC50 [2]: 171 nM

Structure (SMILES): CC(=O)Nc1nc2c(s1)-c1c(c(-c3ccc(C)nc3)nn1-c1cccnc1C)CCC2 [Example B-137, N-[1-(2-Methyl-pyridin-3-yl)-3-(6-methyl-pyridin-3-yl)-1,4,5,6-tetrahydro-9-thia-1,2,7-triaza-cyclopent[e]azulen-8-yl]acetamide]
- IC50 [1]: 422 nM
- EC50 [2]: 1240 nM

Structure (SMILES): C=CCn1nc(-c2ccc(N)nc2)c2c1-c1sc(NC(=O)N(C)C)nc1CCC2 [Example B-52]
- IC50 [1]: 146 nM
- EC50 [2]: 326 nM

Structure (SMILES): CC(C)n1nc(-c2ccc(N)nc2)c2c1-c1sc(NC(=O)N(C)C)nc1CCC2 [Example B-29]
- IC50 [1]: 200 nM
- EC50 [2]: 276 nM

Structure (SMILES): CCNc1ccc(-c2nn(C3CCCOC3)c3c2CCCc2nc(NC(C)=O)sc2-3)cn1 (stereo not shown) [Example B-60]
- IC50 [1]: 109 nM
- EC50 [2]: 170 nM

Structure (SMILES): CCNc1ccc(-c2nn(-c3ccccc3C)c3c2CCCc2nc(NC(=O)CNC)sc2-3)cn1 [Example B-69]
- IC50 [1]: 145 nM
- EC50 [2]: 229 nM

Structure (SMILES): CC(=O)Nc1nc2c(s1)-c1c(c(-c3ccc(N)nc3)nn1-c1ccccc1Br)CCC2 [Example B-63, N-[3-(6-Amino-pyridin-3-yl)-1-(2-bromo-phenyl)-1,4,5,6-tetrahydro-9-thia-1,2,7-triaza-cyclopenta[e]azulen-8-yl]-acetamide]
- IC50 [1]: 27 nM
- EC50 [2]: 143 nM

Structure (SMILES): COc1ccccc1-n1nc(-c2c[nH]cn2)c2c1-c1sc(NC(C)=O)nc1CCC2 [Example B-117]
- IC50 [1]: 35 nM
- EC50 [2]: 306 nM
